Laboratory results published in patent EP4793274A1, “SALT AND CRYSTAL FORM OF KIF18A INHIBITOR COMPOUND, PREPARATION METHOD THEREFOR AND USE THEREOF” (Hubei Bio-Pharmaceutical Industrial Technological Institute …, priority 2023, dated 2025).
Structures can show the parent of a compound that is named as a salt.

How the values were obtained:
[1] = Solubility at room temperature in water, SGF and FaSSIF (HPLC concentration, pH of filtrate, XRPD of residual solid); settings: for S: solubility: feeding concentration 1 mg/mL; for pH: pH of filtrate
Protocol: 100 mg of NaCl and 50 mg of Triton X-100 were weighed into a 50 mL volumetric flask and then completely dissolved by addition of purified water. 816 µL of 1 M hydrochloric acid was added, and the pH was adjusted to 1.8 with 1 M hydrochloric acid or 1 M NaOH solution. The mixed solution was brought to the volume by addition of purified water.
340 mg of anhydrous NaH2PO4 and 620 mg of NaCl were weighed into a 100 mL volumetric flask, and then completely dissolved by addition of purified water. 55.44 µL of a 50% NaOH solution was then added, and the pH was adjusted to 6.5 with 1 M hydrochloric acid or 1 M NaOH solution. The mixed solution was brought to the volume by addition of purified water. Subsequently, 110 mg of SIF powder was weighed into a 50 mL volumetric flask and completely dissolved in the solution described above, and the mixed solution was brought to the volume.
Solids at a feeding concentration of 1 mg/mL (calculated based on free crystal form) were rotationally mixed with corresponding vehicles at room temperature. […] After sampling at each time point, the samples were centrifuged (at 10000 rpm) and filtered (through a 0.22 µm PTFE filter head), the HPLC concentrations and pH values of the filtrates were determined, and the centrifuged solid samples were subjected to XRPD analysis.

[2] = Dynamic solubility at 37 °C in H2O, SGF, FaSSIF and FeSSIF (HPLC concentration, pH of filtrate, XRPD of residual solid); assay type: physicochemical; settings: listed as Crystal form E of methanesulfonate; for S: solubility: feeding concentration 10 mg/mL; for FC: crystal form change: XRPD of residual solid; for pH: pH of filtrate
Protocol: 0.82 mL of glacial acetic acid and 1.18 g of NaCl were added to a 100 mL volumetric flask and completely dissolved by addition of purified water.
The solubility of each sample in H2O, SGF, FaSSIF, and FeSSIF was determined at different time points (1 h, 2 h, 4 h, and 24 h). […] 137-156. […] Table C-2. Summary of dynamic solubility test results at 37 °C

[3] = Hygroscopicity by dynamic vapor sorption (DVS); assay type: physicochemical; settings: 25 °C/80% RH
Protocol: Dynamic vapor sorption (DVS) curves were acquired on a DVS IntrInsic from Surface Measurement Systems (SMS). The relative humidity at 25 °C was corrected with the deliquescence points of LiCl, Mg(NO3)2, and KCl. Table A-5. DVS test parameters
The percentage changes in mass of the samples when the humidity changed (0% RH to 95% RH) at a constant temperature of 25 °C were collected. 157-166.

[4] = Solid state stability (XRPD and HPLC purity); assay type: physicochemical
Excerpt: 167-171. […] Table C-3. Summary of solid state stability evaluation

[5] = 80 °C/sealed, 1 day, listed as Crystal form E of methanesulfonate

Cc1cc(-c2cnn(-c3ccc(NS(=O)(=O)CCO)cc3N3CCC4(CC3)CC4)c2)nc(N2CCC(F)(F)CC2)n1 [crystal form C of the hydrochloride]
S: solubility ([1]; FaSSIF, 2 h, listed as Crystal form C of hydrochloride, 120 min): 0.1204 mg/mL
S: solubility ([1]; FaSSIF, 24 h, listed as Crystal form C of hydrochloride, 1440 min): 0.0363 mg/mL
S: solubility ([1]; H2O, 24 h, listed as Crystal form C of hydrochloride, 1440 min): 0.0002 mg/mL
S: solubility ([1]; SGF, 2 h, listed as Crystal form C of hydrochloride, 120 min): 0.0541 mg/mL
S: solubility ([1]; SGF, 24 h, listed as Crystal form C of hydrochloride, 1440 min): 0.0188 mg/mL
pH ([1]; FaSSIF, 2 h, listed as Crystal form C of hydrochloride): 6.3
pH ([1]; FaSSIF, 24 h, listed as Crystal form C of hydrochloride): 6.3
pH ([1]; H2O, 2 h, listed as Crystal form C of hydrochloride): 2.7
pH ([1]; H2O, 24 h, listed as Crystal form C of hydrochloride): 2.7
pH ([1]; SGF, 2 h, listed as Crystal form C of hydrochloride): 1.8
pH ([1]; SGF, 24 h, listed as Crystal form C of hydrochloride): 1.8

Cc1cc(-c2cnn(-c3ccc(NS(=O)(=O)CCO)cc3N3CCC4(CC3)CC4)c2)nc(N2CCC(F)(F)CC2)n1 [crystal form E of the methanesulfonate]
S: solubility ([2]; FaSSIF, 1 h, 60 min): 0.0604 mg/mL
S: solubility ([2]; FaSSIF, 2 h, 120 min): 0.0466 mg/mL
S: solubility ([2]; FaSSIF, 4 h, 240 min): 0.0359 mg/mL
S: solubility ([2]; FaSSIF, 24 h, 1440 min): 0.0187 mg/mL
S: solubility ([2]; FeSSIF, 1 h, 60 min): 0.1944 mg/mL
S: solubility ([2]; FeSSIF, 2 h, 120 min): 0.1834 mg/mL
S: solubility ([2]; FeSSIF, 4 h, 240 min): 0.1725 mg/mL
S: solubility ([2]; FeSSIF, 24 h, 1440 min): 0.0899 mg/mL
S: solubility ([2]; H2O, 1 h, 60 min): 0.0185 mg/mL
S: solubility ([2]; H2O, 2 h, 120 min): 0.0145 mg/mL
S: solubility ([2]; H2O, 4 h, 240 min): 0.0124 mg/mL
S: solubility ([2]; H2O, 24 h, 1440 min): 0.0045 mg/mL
S: solubility ([2]; SGF, 1 h, 60 min): 0.1251 mg/mL
S: solubility ([2]; SGF, 2 h, 120 min): 0.1002 mg/mL
S: solubility ([2]; SGF, 4 h, 240 min): 0.0846 mg/mL
S: solubility ([2]; SGF, 24 h, 1440 min): 0.0164 mg/mL
FC: crystal form change ([2]; FaSSIF, 1 h): Yes
FC: crystal form change ([2]; FaSSIF, 2 h): Yes
FC: crystal form change ([2]; FaSSIF, 4 h): Yes
FC: crystal form change ([2]; FaSSIF, 24 h): Yes
FC: crystal form change ([2]; FeSSIF, 1 h): Yes
FC: crystal form change ([2]; FeSSIF, 2 h): Yes
FC: crystal form change ([2]; FeSSIF, 4 h): Yes
FC: crystal form change ([2]; FeSSIF, 24 h): Yes
FC: crystal form change ([2]; H2O, 1 h): Yes
FC: crystal form change ([2]; H2O, 2 h): Yes
FC: crystal form change ([2]; H2O, 4 h): Yes
FC: crystal form change ([2]; H2O, 24 h): Yes
FC: crystal form change ([2]; SGF, 1 h): Yes
FC: crystal form change ([2]; SGF, 2 h): Yes
FC: crystal form change ([2]; SGF, 4 h): Yes
FC: crystal form change ([2]; SGF, 24 h): Yes
pH ([2]; FaSSIF, 1 h): 2.78
pH ([2]; FaSSIF, 2 h): 2.76
pH ([2]; FaSSIF, 4 h): 2.77
pH ([2]; FaSSIF, 24 h): 2.84
pH ([2]; FeSSIF, 1 h): 4.69
pH ([2]; FeSSIF, 2 h): 4.68
pH ([2]; FeSSIF, 4 h): 4.70
pH ([2]; FeSSIF, 24 h): 4.70
pH ([2]; H2O, 1 h): 1.79
pH ([2]; H2O, 2 h): 1.76
pH ([2]; H2O, 4 h): 1.80
pH ([2]; H2O, 24 h): 1.76
pH ([2]; SGF, 1 h): 1.49
pH ([2]; SGF, 2 h): 1.46
pH ([2]; SGF, 4 h): 1.48
pH ([2]; SGF, 24 h): 1.54
vapor sorption values [3]: 2.324%
HPLC results Relative to starting (%) ([4]; 25 °C/60% RH/open, 1 week): 100.0%
HPLC results Purity (area%) ([4]; 25 °C/60% RH/open, 1 week, listed as Crystal form E of methanesulfonate): 98.39 area%
HPLC results Relative to starting (%) ([4]; 40 °C/75% RH/open, 1 week): 100.0%
HPLC results Purity (area%) ([4]; 40 °C/75% RH/open, 1 week, listed as Crystal form E of methanesulfonate): 98.39 area%
HPLC results Purity (area%) [4, 5]: 98.37 area%
HPLC results Relative to starting (%) [4, 5]: 100.0%
HPLC results Purity (area%) ([4]; Starting, listed as Crystal form E of methanesulfonate): 98.36 area%
Crystal form ([4]; XRPD after 25 °C/60% RH/open, 1 week, listed as Crystal form E of methanesulfonate): Crystal form E of methanesulfonate
Crystal form ([4]; XRPD after 40 °C/75% RH/open, 1 week, listed as Crystal form E of methanesulfonate): Crystal form E of methanesulfonate
Crystal form ([4]; XRPD after 80 °C/sealed, 1 day, listed as Crystal form E of methanesulfonate): Crystal form E of methanesulfonate

Cc1cc(-c2cnn(-c3ccc(NS(=O)(=O)CCO)cc3N3CCC4(CC3)CC4)c2)nc(N2CCC(F)(F)CC2)n1 [free crystal form C]
S: solubility ([1]; FaSSIF, 2 h, 120 min): 0.0136 mg/mL
S: solubility ([1]; FaSSIF, 24 h, 1440 min): 0.0038 mg/mL
S: solubility ([1]; SGF, 2 h, 120 min): 0.0040 mg/mL
S: solubility ([1]; SGF, 24 h, 1440 min): 0.0034 mg/mL
pH ([1]; FaSSIF, 2 h): 6.5
pH ([1]; FaSSIF, 24 h): 6.5
pH ([1]; H2O, 2 h): 8.7
pH ([1]; H2O, 24 h): 7.2
pH ([1]; SGF, 2 h): 1.9
pH ([1]; SGF, 24 h): 1.9
